Test results reported in patent US20210283217A1, “NEUROMODULATING COMPOSITIONS AND RELATED THERAPEUTIC METHODS FOR THE TREATMENT OF INFLAMMATORY AND AUTOIMMUNE DISEASES” (Flagship Pioneering Innovations V, Inc., priority 2016, published 2021).

What was measured:
primary human T cells = test: T cell activation and cytokine secretion assay (LEGENDplex); format: cell-based
Protocol: Peripheral blood mononuclear cells (PBMCs) were isolated from whole blood by ficoll density separation. Briefly, blood was diluted 1:2 with 0.5 mM EDTA solution in PBS, loaded onto a Ficoll-filled Leucosep tube (Greiner Bio-One), and centrifuged for 20 minutes at 1000×g. After centrifugation, the leukocyte/PBMC layer on top of the separation medium was collected and sequentially washed three times with 0.5 mM EDTA solution in PBS. T cells were isolated from PBMCs using magnetic bead-based separation following vendor specification, e.g., Biolegend MojoSort Human CD4/CD8 Naïve T Cell Isolation Kit protocol. In brief, the PBMCs were labeled with biotinylated antibodies against cell surface receptors for cells not in the population of interest. The labeled cells are then captured by streptavidin-coated magnetic beads and removed by magnetic incubation. The uncaptured cells that flow through the magnetic separation are predominantly comprised of the population of interest, in this instance CD3+ T cells. T cells were stained with a 5 μM solution of Tag-it Violet™ dye (BioLegend) for 20 minutes protected from light. The stain was quenched by incubating the cells in cell culture medium containing 10% FBS (complete media). Stained cells were plated on tissue culture plates and sub-maximally activated with concanavalin A (con A) added to the culture medium. Cells were plated at 0.1×10^6 cells well. […] Cells were collected at 24, 48, and 72 hrs. Supernatants were collected at 24, 48, and 72 hrs and cytokine secretion was analyzed by flow cytometry using a LEGENDplex assay (BioLegend). In brief, following manufacturer's protocol, beads pre-coated with antibodies specific to various cytokines were incubated with cell supernatant. […] The beads were then stained and the captured cytokine composition assessed by flow cytometry.

[1] = test system: T cells in the lymph node; test: Lymph node remodeling by hock injection, flow cytometry of lymph node cells; format: in vivo, C57BL/6J mice; conditions: hock injection 48.5 nmol followed by quinpirole 0.1 nmol; 24 hours
Protocol: 24 hours after hock injection, brachial lymph nodes (LN) were harvested in culture medium (RPMI+10% FBS). LNs were transferred to 24-well tissue culture plates containing 0.5 mL LN digestion buffer (RPMI, 2% FBS, collagenase D (3.3 mg/mL), and DNAse I (40 ug/mL)). LN capsules were manually opened with two syringe (26G) needles and the LNs were incubated in digestion buffer for 15 minutes. Digested LNs were filtered with a 40 μM cell strainer and tissues were smashed with the plunger of a 5 mL syringe. Collected cells were washed in culture medium and plated for assays. Total number of viable cells were assessed by staining with viability dye eFluor 780 (eBioscience). Surface markers of various immune cell subsets were analyzed by staining the cells with antibodies for cell identity (CD3, CD4, CD8, CD19), for the inflammatory marker CD69, and the migratory marker CCR7. The cells were then assayed by flow cytometry.

macrophages = test: Macrophage activation and cytokine secretion assay (M1/M2 polarization); format: cell-based, human
Protocol: Peripheral blood mononuclear cells (PBMCs) were isolated from whole blood by ficoll density separation. Briefly, blood was diluted 1:2 with 0.5 mM EDTA solution in PBS, loaded onto a Ficoll-filled Leucosep tube (Greiner Bio-One), and centrifuged for 20 minutes at 1000×g. After centrifugation, the leukocyte/PBMC layer was collected and sequentially washed three times with 0.5 mM EDTA solution in PBS.
Monocytes (CD14+) were isolated from PBMCs using magnetic bead-based separation following vendor specifications, e.g., Biolegend MojoSort Human CD14 Selection Kit protocol. In brief, PBMCs were labeled with biotinylated antibodies against cell surface receptors for cells not in the population of interest. The labeled cells are then captured by streptavidin-coated magnetic beads and removed by magnetic incubation. The uncaptured cells that flow through the magnetic separation are predominantly comprised of the population of interest, in this case CD14+ monocytes.
Monocytes were differentiated into macrophages by culturing in DMEM complete medium containing 10% FBS for seven days in the presence of 40 ng/mL human M-CSF. Media was changed on day 1 and day 4. On Day 4, macrophages were polarized to various subtypes as follows: M0—incubated with 40 ng/mL M-CSF; M1—cultured with 40 ng/mL M-CSF, 20 ng/mL IFNγ, and 50 ng/mL LPS; M2—incubated with 40 ng/mL M-CSF, 20 ng/mL IL4, 20 ng/mL IL10, and 20 ng/mL TFGB. On day 7, cells were harvested by scraping them from the tissue culture plates and transferring them to 96-well plates.
Supernatants were collected at 24, 48, and 72 hrs and cytokine secretion was analyzed by flow cytometry using a LEGENDplex assay (BioLegend). In brief, following manufacturer's protocol, beads that are pre-coated with antibodies specific to various cytokines were incubated with cell supernatant. […] The beads were then stained and the captured cytokine composition assessed by flow cytometry.
M1 macrophage polarization is defined as increase in production of IL-12, TNF, IL-6, IL-8, IL-1B, MCP-1 and CCL2. Additionally, markers of M1 polarization that can be detected by RNA include Nos2. M2 polarization is defined as increase in IL-10 and/or a decrease in the M1 cytokines listed above. Additionally, markers of M2 polarization that can be detected by RNA include Arg1, IDO, PF4, CCL24, IL10, and IL4Ralpha.

NK cells = test: NK cell ADCC against trastuzumab-coated Her2 expressing target cells; format: cell-based, human; conditions: compared with NK cells pre-treated with beta adrenergic antagonist (nadolol or propranolol) prior to the agonist
Protocol: Primary Natural Killer (NK) cells are isolated from human peripheral blood using a magnetic bead-based separation kit that negatively selects NK cells by sequestering other defined cell types (T, B, monocytes, etc.). Isolated NK cells are incubated with a target cell line, for example a Her2 expressing cancer cell line that has been pre-coated with trastuzumab, an anti-Her2 antibody, at a range of target-to-effector cell ratios. Following antibody-dependent cell cytotoxicity (ADCC)—antibody-mediated killing of the target cells by the NK cells, the number of surviving target cells is assessed by a fluorescent viability stain.

[2] = Treatment of multiple sclerosis patient, MRI lesions; format: in vivo, human; conditions: MS patient; oral 5 mg/day; MRI 3-6 month after treatment initiation
Protocol: A patient is diagnosed with multiple sclerosis (MS) by MRI criteria of >2 lesions. The patient is treated orally with propranolol at a dose regimen of 5 mg/day. An MRI scan is administered 3-6 month after treatment initiation. Further MRI scans are obtained at intervals of 6-12 months.

[3] = low sub-nanomolar concentrations, 72 hours post treatment
[4] = T cells from two different donors, 72 hours
[5] = T cells from two different donors, multiple time points

## NCCc1ccc(O)c(O)c1 [dopamine, Dopamine]
Primary human T cells; 24 and 48 hours post-treatment, nanomolar concentrations
  T cell production of pro-survival cytokine IL-2: increase
Primary human T cells; [3]
  T cell production of pro-inflammatory cytokine IFNγ: increase
  T cell production of pro-inflammatory cytokine IL-5: increase
  T cell production of pro-inflammatory cytokine IL-6: increase
  T cell production of pro-inflammatory cytokine IL-10: increase
  T cell production of pro-inflammatory cytokine IL-13: increase

## O=C(CCCN1CCC(O)(c2ccc(Cl)cc2)CC1)c1ccc(F)cc1 [haloperidol, Haloperidol]
[1]
  quinpirole-induced increase of CCR7+ T cells in the lymph node after pre-treatment with antagonist: inhibited

## CC(C)NCC(O)c1ccc(O)c(O)c1 (centres unmarked) [isoproterenol]
Primary human T cells; [4]
  T cell production of pro-inflammatory cytokine IFNγ (FIG. 6A): decreased
  T cell production of pro-inflammatory cytokine IL-10 (FIG. 6C): decreased
  T cell production of pro-inflammatory cytokine TNFα (FIG. 6B): decreased
Primary human T cells; [5]
  T cell production of pro-inflammatory cytokine IFNγ: decrease
  T cell production of pro-inflammatory cytokine IL-10: decrease
  T cell production of pro-inflammatory cytokine TNFα: decrease
macrophages; M1 marker
  transcript of NOS2 in macrophages: decrease
macrophages; M2 marker
  transcript for Arg1 in macrophages: increase
  transcript for IL-10 in macrophages: increase
macrophages; monocyte-derived macrophages, dilutions from 10 μM to 1 nM
  macrophage polarization phenotype: polarized toward an M2 phenotype

## CC(C)NCC(O)c1cc(O)cc(O)c1 (centres unmarked) [metaproterenol]
NK cells
  ADCC induced by treated NK cells: significantly less ADCC

## CC(C)NCC(O)COc1cccc2ccccc12 (centres unmarked) [propranolol]
[2]
  Gadolinium (Gd)-enhancing T1 lesions and/or new or enlarging (active) T2 lesions: decrease

## neuropeptide Y
Primary human T cells; sub-nanomolar concentrations, 48 hours post-treatment
  T cell production of cytokine IL-4: increase
